Laboratory results reported in publication PMC7404270, “Biological Activities of Cyclic and Acyclic B-Type Laxaphycins in SH-SY5Y Human Neuroblastoma Cells” (Marine Drugs, 2020).

Legend:
LC3 = assay: Western blot, LC3II/I ratio; type: cell-based, human; conditions: SH-SY5Y cells, 24 h; Baf A1 0.001 µM, Rap 0.1 µM
Method: (§1) SH-SY5Y cells were seeded in 12-well plates and treated with laxaphycins for 24 h. Next, cells were washed with PBS and lysis buffer (50mM Tris HCl, 150 mM NaCl, 1mM EDTA and 1% Triton x-100, supplemented with a complete phosphatase/protease inhibitor cocktail) was added to each well. Cells were scrapped, sonicated and centrifuged at 13,000 rpm at 4 °C for 20 min.
(§2) In both cases, the supernatant was collected as the cytosolic fraction and quantified with the Bradford method. Samples containing 15 µg were used for electrophoresis, resolved in 4–20% sodium dodecyl sulphate polyacrylamide gel (Biorad, Madrid, Spain). Proteins were transferred to PVDF membranes (Merck Millipore) with a Trans-Blot® semi-dry transfer cell (Biorad). Membrane blocking and antibody incubation was performed in Snap i.d. system (Merck Millipore). Protein bands were detected with Supersignal West Pico Luminiscent Substrate and Supersignal West Femto Maximum Sensitivity Substrate (Thermo Fisher Scientific). Chemiluminiscence was determined with Diversity GeneSnap system and software (Syngene). […]

AMPK = assay: Western blot, AMPK activation (phosphorylated/total); type: cell-based, human; conditions: SH-SY5Y cells, 24 h; Comp C 1 µM
Method: as §1, §2

beclin 1 = assay: Western blot, beclin 1 expression; type: cell-based, human; conditions: SH-SY5Y cells, 24 h; Rap 0.1 µM
Method: as §1
(§3) In both cases, the supernatant was collected as the cytosolic fraction and quantified with the Bradford method. Samples containing 15 µg were used for electrophoresis, resolved in 4–20% sodium dodecyl sulphate polyacrylamide gel (Biorad, Madrid, Spain). Proteins were transferred to PVDF membranes (Merck Millipore) with a Trans-Blot® semi-dry transfer cell (Biorad). Membrane blocking and antibody incubation was performed in Snap i.d. system (Merck Millipore). Protein bands were detected with Supersignal West Pico Luminiscent Substrate and Supersignal West Femto Maximum Sensitivity Substrate (Thermo Fisher Scientific). Chemiluminiscence was determined with Diversity GeneSnap system and software (Syngene). LC3 II/I was detected with the primary antibody anti-LC3 II/I (1:1000, Abcam), the primary antibody anti-pmTOR (Ser2448) (1:1000, Merck Millipore) was used to recognize phospho-mTOR and the total levels of the kinase were determined with anti-mTOR antibody (1:10000, Abcam), beclin-1 was detected with anti-beclin-1 primary antibody (1:1000, Merck Millipore), p62 was quantified with anti-p62 antibody (1:1000, Merck Millipore), anti-phospho-p70 S6 kinase (Thr389) (1:1000, Merck Millipore) was used to detect phospho- p70 and the total levels were quantified using anti-p70 S6 kinase antibody (1:1000, Merck Millipore), anti-phospho-AMPK (Thr172) (1:500, Merck Millipore) was used to recognize the phosphorylated state of the kinase, and the total expression of the enzyme was detected with anti-AMPK antibody (1:500, Merck Millipore). Protein levels were normalized using β-Actin (1:20,000, Millipore). Baf A1 (0.001 µM), Rap (0.1 µM) and Comp C (1 µM) were used as controls for autophagic flux measurements. All the experiments were performed at least three times in duplicate.

mTOR = assay: Western blot, mTOR activation (phosphorylated/total); type: cell-based, human; conditions: SH-SY5Y cells, 24 h; Rap 0.1 µM
Method: as §1
as §3, with “All the experiments were performed at least three times in duplicate.” left out

caspase 3 = assay: Caspase 3 activity in cell lysates (EnzCheck kit); type: cell-based, human; conditions: SH-SY5Y cells, 24 h; STS 0.01 µM; percentage of control cells, mean ± SEM
Method: The detection of caspase 3 activity was carried out with the EnzCheck® Caspase-3 Assay Kit. Neuroblastoma cells were cultured in 12-well plates at 1 × 10^6 cells per well and treated with compounds. After 24 h, cells were lysed and an aliquot was collected to quantify protein concentration by the Bradford method. Then, the assay was performed following manufacturer’s instructions. Briefly, 50 µL of each sample were mixed with equal volume of Z-DEVD-AMC substrate and incubated for 30 min at room temperature. Then, fluorescence at 342 nm excitation and 441 nm emission was measured. Caspase 3 activity data were corrected by protein concentration values. STS (0.01 µM) was used as positive control.

[1] = test system: SH-SY5Y human neuroblastoma cells; assay: Annexin V-FITC / propidium iodide flow cytometry; type: cell-based; conditions: 24 h, 1 at 0.3 µM, 2 at 0.15 µM, STS at 0.01 µM, percentage of total cells, mean ± SEM of three experiments
Method: The Annexin V-FITC Apoptosis Detection Kit was used to determine the cell death produced by compounds as previously described. SH-SY5Y cells were seeded in 12-well plates at 1 × 10^6 per well and incubated for 24 h with laxaphycins. Then, cells were washed with PBS and resuspended in Annexin binding buffer containing Annexin V-FITC and PI. Cells were incubated for 15 min at room temperature, resuspended in PBS and filtered. The fluorescence was determined by flow cytometry using the ImageStreamMKII (Amnis Corporation, Luminex Corp, Austin, TX, USA). 10,000 events were analyzed with IDEAS Application 6.0 software (Amnis Corporation, Luminex Corp, Austin, TX, USA). STS (Sigma Aldrich) at 0.01 µM was used as control in this assay.

[2] = test system: SH-SY5Y human neuroblastoma cells; assay: LDH cytotoxicity assay (cell viability); type: cell-based; conditions: 24 h, 0.001–10 µM
Method: (§4) SH-SY5Y human neuroblastoma cell line was obtained from American Type Culture Collection (ATCC), number CRL2266. Cells were cultured in Dulbecco´s modified Eagle´s medium: Nutrient Mix F-12 (DMEM/F-12) with 10% fetal bovine serum (FBS), 1% glutamax, 100 U/mL penicillin and 100 µg/mL streptomycin. Cells were maintained at 37 °C in a humidified atmosphere of 5% CO2 and 95% air and dissociated weekly using 0.05% trypsin/EDTA. All the reagents were obtained from Thermo Fischer Scientific.
Cell viability was assessed with the LDH test. Cells were seeded in 96-well plates and exposed to different compound concentrations (0.001–10 µM). Cells were incubated with compounds at 37 °C in humidified 5% CO2/95% air atmosphere for 24 h. Quillaja bark saponin was used as cellular death control. Then, cell medium was collected and LDH release was evaluated. Pierce^TM LDH-Cytotoxicity Assay Kit (Thermo Fisher Scientific) was used for LDH determination. Absorbance was measured at 490 nm to determine LDH release to the medium. Experiments were carried out in triplicate at least three independent times.

p70 S6 kinase = assay: Western blot, p70 S6 kinase activation (phosphorylated/total); type: cell-based, human; conditions: SH-SY5Y cells, 24 h; one range given for the three compounds together
Method: as §1
as §3, with “All the experiments were performed at least three times in duplicate.” left out

[3] = test system: SH-SY5Y human neuroblastoma cells; assay: ATP levels (Luminescent ATP Detection Kit); type: cell-based; conditions: 0.001–10 µM; for ATP levels at 6 h, in words: 6 h incubation; for ATP levels at 24 h, in words: 24 h incubation
Method: ATP levels were determined with the Luminescent ATP Detection Kit (Abcam), following manufacturer´s instructions. Briefly, human neuroblastoma cells were cultured in 96-well plates at 5 × 10^4 cells per well. Cells were treated with compounds as described above during 6 and 24 h, Then, cells were lysed and 50 µL of substrate solution were added to each well. The plate was incubated for 5 min, and the luminescence was measured in a plate reader. Rot at 1 µM was used as positive control.

[4] = test system: SH-SY5Y human neuroblastoma cells; assay: Reactive oxygen species levels (carboxy-H2DCFDA); type: cell-based; conditions: 24 h, 0.001–10 µM
Method: ROS production was assessed with the fluorescence dye carboxy-H2DCFDA (5-(and-6)-carboxy-2′,7′-dichlorodihydrofluorescein diacetate). SH-SY5Y cells were seeded in 96-well plates and allowed to grow for 24 h. Then, cells were treated with laxaphycins (0.001–10 µM) for 24 h and ROS levels were measured. SH-SY5Y cells were washed twice with serum-free medium and loaded with 20 µM carboxy-H2DCFDA. Next, the plate was incubated for 1 h at 37 °C. After this time, phosphate buffered saline (PBS) was added to each well during 30 min. The fluorescence was read at 495 nm excitation and 527 nm emission. Experiments were carried out at least three times.

[5] = test system: SH-SY5Y human neuroblastoma cells; assay: MTT cell metabolic activity assay; type: cell-based; conditions: 24 h, 0.001–10 µM
Method: as §4
The effect of laxaphycins on cell metabolic activity was evaluated by MTT (3-(4, 5-dimethyl thiazol-2-yl)-2, 5-diphenyl tetrazolium bromide) assay. SH-SY5Y cells were cultured in 96-well plates and treated with compounds at concentrations ranging from 0.001 to 10 µM for 24 h. Next, cells were rinsed three times and incubated for 1 h with MTT (500 µg/mL) dissolved in saline buffer. MTT excess was washed and cells were disaggregated with 5% sodium dodecyl sulfate. Absorbance of the colored formazan salt was measured at 595 nm in a spectrophotometer plate reader. Cell death control signal was subtracted from the other data.

[6] = test system: SH-SY5Y human neuroblastoma cells; assay: Mitochondrial membrane potential (TMRM dye); type: cell-based; conditions: 24 h, 0.001–10 µM
Method: ∆Ψm was evaluated with TMRM assay as previously described. SH-SY5Y cells were seeded in 96-well plates at 5 × 10^4 cells per well. After 24 h, cells were treated with compounds (0.001–10 µM) for 24 h. Next, cells were washed twice with saline solution and incubated with 1 µM TMRM for 30 min. Then human neuroblastoma cells were solubilized with 50% DMSO–50% water. Fluorescence values were measured at 535 nm excitation, 590 nm emission with a plate reader. At least three independent replicates were performed in triplicate.

Row | Compound | Beclin 1 expression, in words (beclin 1) | Cytotoxicity / cell viability (LDH test), in words [2] | ATP levels at 6 h, in words [3] | ATP levels at 24 h, in words [3] | ROS levels (carboxy-H2DCFDA), in words [4] | Mitochondrial membrane potential (∆Ψm, TMRM), in words [6] | also measured
1 | CO/C1=C\C(C)=C\[C@@H](C)[C@@H](O)[C@@H](C)C/C(C)=C/C=C/[C@H](OC)[C@@H]([C@@H](C)[C@@H](O)[C@H](C)[C@@]2(O)C[C@@H](O)[C@H](C)[C@@H](C(C)C)O2)OC1=O [Baf A1, Bafilomycin A1] |  |  |  |  |  |  | LC3II/I ratio, in words (LC3): increased LC3II/I ratio
2 | c1cc(-c2cnn3cc(-c4ccc(OCCN5CCCCC5)cc4)cnc23)ccn1 [Comp C, compound C, reference compound] |  |  |  |  |  |  | AMPK activation (phospho/total), in words (AMPK): inhibited kinase activity
3 | CO[C@H]1C[C@@H]2CC[C@@H](C)[C@@](O)(O2)C(=O)C(=O)N2CCCC[C@H]2C(=O)O[C@H]([C@H](C)C[C@@H]2CC[C@@H](O)[C@H](OC)C2)CC(=O)[C@H](C)/C=C(\C)[C@@H](O)[C@@H](OC)C(=O)[C@H](C)C[C@H](C)/C=C/C=C/C=C/1C [Rap, rapamycin, reference compound] | augmented its expression |  |  |  |  |  | LC3II/I ratio, in words (LC3): increased LC3II/I ratio; mTOR activation (phospho/total), in words (mTOR): reduced mTOR activation
4 | CN[C@@H]1C[C@H]2O[C@@](C)([C@@H]1OC)n1c3ccccc3c3c4c(c5c6ccccc6n2c5c31)C(=O)NC4 [STS, staurosporine, reference compound] |  |  |  |  |  |  | Caspase 3 activity (caspase 3): 157.8% ± 6%; Apoptotic cells (early and late, Annexin V positive) [1]: 63.3% ± 3.2%
5 | [des-(Ala^4-Hle^5)] acyclolaxaphycin B3 [compound 6] | generated an increase in beclin1 expression | did not show effects on cell survival | reduced ATP content at 6 h | recovering it after 24 h | decreased ROS release |  | AMPK activation (phospho/total), in words (AMPK): the most active; p70 S6 phosphorylation (p70 S6 kinase): 53.5%–78.6%
6 | [des-(Ala^4-Hle^5)] acyclolaxaphycin B [compound 5] | generated an increase in beclin1 expression | did not show effects on cell survival | levels were reduced by 5 after a 6 h incubation | recovered at 24 h | reduced ROS levels at the highest concentrations | depolarized the mitochondria | Cell metabolic activity (MTT), in words [5]: increased cell metabolic activity
7 | acyclolaxaphycin B3 [compound 4] | generated an increase in beclin1 expression | did not display cytotoxicity at any of the concentrations tested | diminishing ROS release and ATP levels at 6 h |  | diminishing ROS release | depolarizing the mitochondrial membrane at 10 µM | p70 S6 phosphorylation (p70 S6 kinase): 53.5%–78.6%
8 | acyclolaxaphycin B [compound 3] | generated an increase in beclin1 expression | did not display cytotoxicity at any of the concentrations tested | reduction in ATP was observed at 6 h | recovered at 24 h, reaching levels of control cells | reduced ROS and ATP levels at the highest concentrations | produced a decrease in ∆Ψm | Cell metabolic activity (MTT), in words [5]: significantly augmented cell metabolic activity at 0.1 and 1 µM
